According to patent US20060234237A1 (priority 2004, published 2006):
Structures can show the parent of a compound that is named as a salt.

What was measured:
[1] = system: CACO2 colon cancer cell line; conditions: serum starved, 20 ng/ml EGF, 0.5, 6 and 18 hours, vs media alone
Method: (§1) Control cells were treated with media alone. The expression profiling was performed, and data was analyzed using GeneChip® Expression Analysis software MAS 5.0 (Affymetrix, Santa Clara, Calif.).
(§2) The colon cells were grown using standard cell culture conditions: RPMI 1640 supplemented to contain 10% fetal bovine serum, 100 IU/ml penicillin, […] streptomycin, 2 mM L-glutamine and 10 mM Hepes (all from GibcoBRL, Rockville, Md.). RNA was isolated from 50-70% confluent cells or drug-treated cells using the RNeasy™ kits commercially available from Qiagen (Valencia, Calif.). Quality of the RNA was checked by measuring the 28s:18s ribosomal RNA ratio using Agilent 2100 bioanalyzer (Agilent, Technologies, Rockville, Md.). Concentration of total RNA was determined spectrophotometrically. 10 μg of total RNA from each cell line was used to prepare biotinylated probe according to the Affymetrix Genechip® Expression Analysis Technical Manual, 2001. Targets were hybridized to Affymetrix high density oligonucleotide array human HG-U133 set chips (Affymetrix, Santa Clara, Calif.). Arrays were then washed, and stained using the GeneChip Fluidics station according to the manufacture's instructions. The HG-U133 set consisting of two GeneChip® arrays contains nearly 45,000 probe sets representing more than 39,000 transcripts derived from approximately 33,000 well-substantiated human genes.
(§3) For the EGF induction studies, the colon cell line CACO2 and the lung cancer H292 cell line were washed 2×PBS, and the media was changed to RPMI without serum. The next day the cells were treated with 20 ng/ml EGF, and eventually lysed for RNA isolation 0.5, 6 and 18 hours post treatment. Gene expression was profiled as described below.

[2] = system: H292 lung cancer cell line; conditions: serum starved, 20 ng/ml EGF, 0.5, 6 and 18 hours, vs media alone
Method: as §1, §2, §3

CCD_33C0 = assay: In vitro cytotoxicity MTS assay; assay type: cell-based; conditions: Homo sapiens, 72 hours, mean of 2 to 5 determinations, asterisk = sensitive
LOVO = assay: In vitro cytotoxicity MTS assay; assay type: cell-based; conditions: Homo sapiens, 72 hours, mean of 2 to 5 determinations, asterisk = sensitive
LS174T = assay: In vitro cytotoxicity MTS assay; assay type: cell-based; conditions: Homo sapiens, 72 hours, mean of 2 to 5 determinations, asterisk = sensitive
Caco2 = assay: In vitro cytotoxicity MTS assay; assay type: cell-based; conditions: Homo sapiens, Caco-2, 72 hours, mean of 2 to 5 determinations, asterisk = sensitive
SW403 = assay: In vitro cytotoxicity MTS assay; assay type: cell-based; conditions: Homo sapiens, SW-403, 72 hours, mean of 2 to 5 determinations, asterisk = sensitive
CCD18Co = assay: In vitro cytotoxicity MTS assay; assay type: cell-based; conditions: Homo sapiens, CCD-18Co, 72 hours, mean of 2 to 5 determinations
SW837 = assay: In vitro cytotoxicity MTS assay; assay type: cell-based; conditions: Homo sapiens, 72 hours, mean of 2 to 5 determinations
Sk-Co-1 = assay: In vitro cytotoxicity MTS assay; assay type: cell-based; conditions: Homo sapiens, 72 hours, mean of 2 to 5 determinations
MIP = assay: In vitro cytotoxicity MTS assay; assay type: cell-based; conditions: Homo sapiens, 72 hours, mean of 2 to 5 determinations
SW1417 = assay: In vitro cytotoxicity MTS assay; assay type: cell-based; conditions: Homo sapiens, 72 hours, mean of 2 to 5 determinations
HT-29 = assay: In vitro cytotoxicity MTS assay; assay type: cell-based; conditions: Homo sapiens, 72 hours, mean of 2 to 5 determinations
T84 = assay: In vitro cytotoxicity MTS assay; assay type: cell-based; conditions: Homo sapiens, 72 hours, mean of 2 to 5 determinations
CX-1 = assay: In vitro cytotoxicity MTS assay; assay type: cell-based; conditions: Homo sapiens, 72 hours, mean of 2 to 5 determinations
Colo-205 = assay: In vitro cytotoxicity MTS assay; assay type: cell-based; conditions: Homo sapiens, 72 hours, mean of 2 to 5 determinations
Colo-201 = assay: In vitro cytotoxicity MTS assay; assay type: cell-based; conditions: Homo sapiens, 72 hours, mean of 2 to 5 determinations
Colo320HSR = assay: In vitro cytotoxicity MTS assay; assay type: cell-based; conditions: Homo sapiens, COLO-320-HSR, 72 hours, mean of 2 to 5 determinations
HCT8 = assay: In vitro cytotoxicity MTS assay; assay type: cell-based; conditions: Homo sapiens, HCT-8, 72 hours, mean of 2 to 5 determinations
HCT116 = assay: In vitro cytotoxicity MTS assay; assay type: cell-based; conditions: Homo sapiens, HCT-116, 72 hours, mean of 2 to 5 determinations
SW620 = assay: In vitro cytotoxicity MTS assay; assay type: cell-based; conditions: Homo sapiens, SW-620, 72 hours, mean of 2 to 5 determinations
HCT116S542 = assay: In vitro cytotoxicity MTS assay; assay type: cell-based; conditions: Homo sapiens, 72 hours, mean of 2 to 5 determinations
Colo320DM = assay: In vitro cytotoxicity MTS assay
Method: (§4) The IC50 for each cell line was assessed by MTS assays. The average IC50 values along with standard deviations were calculated from two to five individual determinations for each cell line. […] The IC50 unit is μM.
(§5) Cytotoxicity was assessed in cells by MTS (3-(4,5-dimethylthiazol-2-yl)-5-(3-carboxymethoxyphenyl)-2-(4-sulphenyl)-2H-tetrazolium, inner salt) assay (T. L. Riss et al., 1992, Mol. Biol. Cell, 3 (Suppl.): 184a).
(§6) To carry out the assays, the colon cells were plated at 4,000 cell/well in 96 well microtiter plates and 24 hours later serial diluted drugs were added. […] The cells were incubated at 37° C. for 72 hours at which time the tetrazolium dye MTS (333 μg/ml final concentration) in combination with the electron coupling agent phenazine methosulfate (25 μM final concentration) was added. A dehydrogenase enzyme in live cells reduces the MTS to a form that absorbs light at 492 nm that can be quantified spectrophotometrically. The greater the absorbency, the greater the number of live cells. The results were expressed as an IC50, which is the drug concentration required to inhibit cell proliferation (i.e., absorbance at 450 mm) to 50% of that of untreated control cells. The mean IC50 and standard deviation (SD) from multiple tests for each cell line were calculated.

SW480 = assay: In vitro cytotoxicity MTS assay
Method: as §4, §5, §6

For epidermal growth factor [EGFR], the “Expression of EphA1 (EPHA1) stimulated” value [1] was “Expression stimulated 2 fold by”, the “Expression of 3-hydroxy-3-methylglutaryl-Coenzyme A synthase 2 stimulated” value [2] was “Expression stimulated 3 fold by” and the “Expression of BTG family, member 2 (BTG2) stimulated” value [2] was “Expression stimulated 2 fold by”. For the same molecule, the “Expression of cystic fibrosis transmembrane conductance regulator (CFTR) stimulated” value [2] was “Expression stimulated 2 fold by”, the “Expression of prostaglandin G/H synthase and cyclooxygenase stimulated” value [2] was “Expression stimulated 6 fold by” and the “Expression of serine (or cysteine) proteinase inhibitor, clade B (ovalbumin), member 5 (SERPINB5) stimulated” value [2] was “Expression stimulated 2 fold by”.

In the case of C#Cc1cccc(Nc2ncnc3cc(OCCOC)c(OCCOC)cc23)c1 [BMS-461453, erlotinib HCl], the IC50 (CCD_33C0) is reported as 2 µM, the IC50 (LOVO) is reported as 2.3 µM and the IC50 (LS174T) is reported as 3.5 µM. For the same molecule, the IC50 (Caco2) was 5.5 µM, the IC50 (SW403) was 5.7 µM and the IC50 (CCD18Co) was 7.1 µM. For the same molecule, the IC50 (SW837) was 7.2 µM, the IC50 (Sk-Co-1) was 9 µM and the IC50 (MIP) was 9.7 µM. The IC50 (SW1417) was over 10 µM, the IC50 (HT-29) was over 10 µM and the IC50 (T84) was over 10 µM. It also gave an IC50 (CX-1) of over 10 µM, an IC50 (Colo-205) of over 10 µM and an IC50 (Colo-201) of over 10 µM. The IC50 (Colo320HSR) was over 10 µM, the IC50 (HCT8) was over 10 µM and the IC50 (HCT116) was over 10 µM. For the same molecule, the IC50 (SW620) was over 10 µM, the IC50 (HCT116S542) was over 10 µM and the “Sensitivity of cell line to the EGFR inhibitor” value (Colo320DM; COLO320_DM, does not express EGFR) was “resistant”. The IC50 (Colo320DM; Homo sapiens, COLO 320DM, 72 h) was over 10 µM, the IC50 (SW480; Homo sapiens, SW480, 72 h) was over 10 µM and the “Sensitivity of cell line to the EGFR inhibitor” value (SW480; SW480, expressing EGFR) was “insensitive”.
